The text below walks through data of US10689383B2, “Optionally fused heterocyclyl-substituted derivatives of pyrimidine useful for the treatment of inflammatory, metabolic, oncologic and autoimmune diseases” (NUEVOLUTION A/S, priority 2014, dated 2020).

In one assay the target is T1, human RORγt (Ligand Binding Domain) (Homo sapiens, UniProt P51449).
T1 construct: purchased Crelux (Planegg, Germany) batch no PC5032-1
T1 sequence (P51449 269-508 limits assumed): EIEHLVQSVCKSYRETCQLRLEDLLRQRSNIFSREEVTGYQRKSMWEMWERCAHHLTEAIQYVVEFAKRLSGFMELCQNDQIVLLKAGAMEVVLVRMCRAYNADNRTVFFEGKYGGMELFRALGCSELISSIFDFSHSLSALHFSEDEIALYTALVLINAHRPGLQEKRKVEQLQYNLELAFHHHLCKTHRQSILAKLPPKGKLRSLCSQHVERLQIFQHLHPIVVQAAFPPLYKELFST
Description: Fluorescence Polarization (FP) Assay.
Details: not given
The procedure:
The activity of the compounds was evaluated using a Fluorescence Polarization (FP) Assay and, in most cases, a Th17 Assay and/or RORγ Reporter assay (also referred to as Gal4 assay). The FP assay is an in vitro assay monitoring binding within the ligand binding pocket. The RORγ and the Th17 assays are both cell-based assays monitoring functional activity of the compound assayed.
The total volume was 25 μl, in a black Perkin Elmer OptiPlate. As negative control, 1 μl DMSO was used. […] The probe is a fluorescently labeled (TAMRA) RORγt ligand identified by Nuevolution with a total molecular weight of 910 g/mole as shown in Graph A in FIG. 1.
(In general: Polarisation of emitted light reports the rotation of a fluorescent probe.)
For the compound `Oc1cc(CNc2ncnc(N3CCCC3c3ccc(C(F)(F)F)cc3)c2F)on1` (stereo not drawn) [Example 216, 5-[[[5-fluoro-6-[2-[4-(trifluoromethyl)phenyl]pyrrolidin-1-yl]pyrimidin-4-yl]amino]methyl]isoxazol-3-ol], the IC50 is < 10 µM.

Still in this assay, the particulars now being: Fluorescence Polarization (FP) Assay; values given as upper bounds of activity ranges; read-out: FP activity range.
In the case of `Fc1c(NCc2cccnc2)ncnc1N1CCCC1c1ccc(C(F)(F)F)cc1` (stereo not drawn) [Example 141, 5-fluoro-N-(3-pyridylmethyl)-6-[2-[4-(trifluoromethyl)phenyl]pyrrolidin-1-yl]pyrimidin-4-amine], the IC50 was < 2 µM.

With `COc1cc(CNc2ncnc(N3CCCC3c3ccc(C(F)(F)F)cc3)c2F)cc(OC)c1` (stereo not drawn) [Example 142, N-[(3,5-dimethoxyphenyl)methyl]-5-fluoro-6-[2-[4-(trifluoromethyl)phenyl]pyrrolidin-1-yl]pyrimidin-4-amine], the IC50 was < 2 µM. On to `O=C1CCCN1c1cccc(CNc2ncnc(N3CCCC3c3ccc(C(F)(F)F)cc3)c2F)c1` (stereo not drawn) [Example 143, 1-[3-[[[5-fluoro-6-[2-[4-(trifluoromethyl)phenyl]pyrrolidin-1-yl]pyrimidin-4-yl]amino]methyl]phenyl]pyrrolidin-2-one], for which the IC50 is < 2 µM. The same measure, in the same setting: in the case of `CNC(=O)c1cccc(CNc2ncnc(N3CCCC3c3ccc(C(F)(F)F)cc3)c2F)c1` (stereo not drawn) [Example 144, 3-[[[5-fluoro-6-[2-[4-(trifluoromethyl)phenyl]pyrrolidin-1-yl]pyrimidin-4-yl]amino]methyl]-N-methyl-benzamide] it was < 10 µM; in that of `CN(C)C(=O)c1cccc(CNc2ncnc(N3CCCC3c3ccc(C(F)(F)F)cc3)c2F)c1` (stereo not drawn) [Example 145, 3-[[[5-fluoro-6-[2-[4-(trifluoromethyl)phenyl]pyrrolidin-1-yl]pyrimidin-4-yl]amino]methyl]-N,N-dimethyl-benzamide], < 10 µM; in that of `Fc1c(NCc2cccc(Cn3cncn3)c2)ncnc1N1CCCC1c1ccc(C(F)(F)F)cc1` (stereo not drawn) [Example 146, 5-fluoro-N-[[3-(1,2,4-triazol-1-ylmethyl)phenyl]methyl]-6-[2-[4-(trifluoromethyl)phenyl]pyrrolidin-1-yl]pyrimidin-4-amine], < 2 µM. Same read-out and setting: in the case of `COCc1cccc(CNc2ncnc(N3CCCC3c3ccc(C(F)(F)F)cc3)c2F)c1` (stereo not drawn) [Example 147, 5-fluoro-N-[[3-(methoxymethyl)phenyl]methyl]-6-[2-[4-(trifluoromethyl)phenyl]pyrrolidin-1-yl]pyrimidin-4-amine] it was < 2 µM. `Cc1ccc(CNc2ncnc(N3CCCC3c3ccc(C)o3)c2F)cn1` (stereo not drawn) [Example 150, 5-fluoro-6-[2-(5-methyl-2-furyl)pyrrolidin-1-yl]-N-[(6-methyl-3-pyridyl)methyl]pyrimidin-4-amine]: the IC50 is < 10 µM. Still for that read-out and setting: the same measure for `Fc1c(NCC2CCC2)ncnc1N1CCCC1c1ccc(C(F)(F)F)cc1` (stereo not drawn) [Example 151, N-(cyclobutylmethyl)-5-fluoro-6-[2-[4-(trifluoromethyl)phenyl]pyrrolidin-1-yl]pyrimidin-4-amine]: < 10 µM; for `Fc1c(NCC2CCOC2)ncnc1N1CCC[C@@H]1c1ccc(C(F)(F)F)cc1` (stereo partly drawn) [Example 154, 5-fluoro-N-(tetrahydrofuran-3-ylmethyl)-6-[(2R)-2-[4-(trifluoromethyl)phenyl]pyrrolidin-1-yl]pyrimidin-4-amine]: < 0.5 µM.

As to `Fc1c(NCC2CCCCO2)ncnc1N1CCC[C@@H]1c1ccc(C(F)(F)F)cc1` (stereo partly drawn) [Example 155, 5-fluoro-N-(tetrahydropyran-2-ylmethyl)-6-[(2R)-2-[4-(trifluoromethyl)phenyl]pyrrolidin-1-yl]pyrimidin-4-amine], the IC50 was < 10 µM. Consider `Fc1c(NCC2CCCS2)ncnc1N1CCC[C@@H]1c1ccc(C(F)(F)F)cc1` (stereo partly drawn) [Example 159, 5-fluoro-N-(tetrahydrothiophen-2-ylmethyl)-6-[(2R)-2-[4-(trifluoromethyl)phenyl]pyrrolidin-1-yl]pyrimidin-4-amine], for which the IC50 is < 2 µM. Consider `CC1(C)CCC(CNc2ncnc(N3CCC[C@@H]3c3ccc(C(F)(F)F)cc3)c2F)CC1` [Example 166, N-[(4,4-dimethylcyclohexyl)methyl]-5-fluoro-6-[(2R)-2-[4-(trifluoromethyl)phenyl]pyrrolidin-1-yl]pyrimidin-4-amine], for which the IC50 is < 0.5 µM. On the same count and under the same terms, the same measure for `O=S1(=O)CCCC1CNc1ncnc(N2CCC[C@@H]2c2ccc(C(F)(F)F)cc2)c1F` (stereo partly drawn) [Example 170, N-[(1,1-dioxothiolan-2-yl)methyl]-5-fluoro-6-[(2R)-2-[4-(trifluoromethyl)phenyl]pyrrolidin-1-yl]pyrimidin-4-amine]: < 10 µM; for `CC(C)(C)C1OCCCC1CNc1ncnc(N2CCC[C@@H]2c2ccc(C(F)(F)F)cc2)c1F` (stereo partly drawn) [Example 175, N-[(2-tert-butyltetrahydropyran-3-yl)methyl]-5-fluoro-6-[(2R)-2-[4-(trifluoromethyl)phenyl]pyrrolidin-1-yl]pyrimidin-4-amine]: < 10 µM.

Regarding `CC(C)C1CCC(CNc2ncnc(N3CCC[C@@H]3c3ccc(C(F)(F)F)cc3)c2F)CC1` (stereo partly drawn) [Example 178, 5-fluoro-N-[(4-isopropylcyclohexyl)methyl]-6-[(2R)-2-[4-(trifluoromethyl)phenyl]pyrrolidin-1-yl]pyrimidin-4-amine], the IC50 is < 0.5 µM. Still for that read-out and setting: in the case of `Fc1c(NCC2CCCO2)ncnc1N1CCC[C@@H]1c1ccc(C(F)(F)F)cc1` (stereo partly drawn) [Example 181, 5-fluoro-N-(tetrahydrofuran-2-ylmethyl)-6-[(2R)-2-[4-(trifluoromethyl)phenyl]pyrrolidin-1-yl]pyrimidin-4-amine] it was < 10 µM; in that of `O=S1(=O)CCC(CNc2ncnc(N3CCC[C@@H]3c3ccc(C(F)(F)F)cc3)c2F)C1` (stereo partly drawn) [Example 184, N-[(1,1-dioxothiolan-3-yl)methyl]-5-fluoro-6-[(2R)-2-[4-(trifluoromethyl)phenyl]pyrrolidin-1-yl]pyrimidin-4-amine], < 0.5 µM; in that of `[O-][n+]1cccc(CNc2ncnc(N3CCC[C@@H]3c3ccc(C(F)(F)F)cc3)c2F)c1` [Example 193, 5-fluoro-N-[(1-oxidopyridin-1-ium-3-yl)methyl]-6-[(2R)-2[4-(trifluoromethyl)phenyl]pyrrolidin-1-yl]pyrimidin-4-amine], < 10 µM. Still for that read-out and setting: the same measure for `[O-][n+]1ccc(CNc2ncnc(N3CCC[C@@H]3c3ccc(C(F)(F)F)cc3)c2F)cc1` [Example 194, 5-fluoro-N-[(1-oxidopyridin-1-ium-4-yl)methyl]-6-[(2R)-2-[4-(trifluoromethyl)phenyl]pyrrolidin-1-yl]pyrimidin-4-amine]: < 2 µM; for `COC1CC(c2ccc(C(F)(F)F)cc2)N(c2ncnc(NCc3ccc(C)nc3)c2F)C1` (stereo not drawn) [Example 212, 5-fluoro-6-[4-methoxy-2-[4-(trifluoromethyl)phenyl]pyrrolidin-1-yl]-N-[(6-methyl-3-pyridyl)methyl]pyrimidin-4-amine]: < 10 µM. On the same count and under the same terms, the same measure for `Cc1cnc(CNc2ncnc(N3CCCC3c3ccc(C(F)(F)F)cc3)c2F)o1` (stereo not drawn) [Example 213, 5-fluoro-N-[(5-methyloxazol-2-yl)methyl]-6-[2-[4-(trifluoromethyl)phenyl]pyrrolidin-1-yl]pyrimidin-4-amine]: < 10 µM; for `Oc1nnc(CNc2ncnc(N3CCCC3c3ccc(C(F)(F)F)cc3)c2F)o1` (stereo not drawn) [Example 214, 5-(((5-fluoro-6-(2-(4-(trifluoromethyl)phenyl)pyrrolidin-1-yl)pyrimidin-4-yl)amino)methyl)-1,3,4-oxadiazol-2-ol]: < 10 µM. For `CCC(Nc1ncnc(N2CCCC2c2ccc(C(F)(F)F)cc2)c1F)c1noc(C)n1` (stereo not drawn) [Example 215, 5-fluoro-N-[1-(5-methyl-1,2,4-oxadiazo1-3-yl)propyl]-6-[2-[4-(trifluoromethyl)phenyl]pyrrolidin-1-yl]pyrimidin-4-amine], the IC50 is < 10 µM. As to `OCc1cccc(CNc2ncnc(N3CCC[C@@H]3c3ccc(C(F)(F)F)cc3)c2F)c1` [Example 217, [3-[[[5-fluoro-6-[(2R)-2-[4-(trifluoromethyl)phenyl]pyrrolidin-1-yl]pyrimidin-4-yl]amino]methyl]phenyl]methanol], the IC50 is < 10 µM.

Take `Fc1c(NCC2CCCC2)ncnc1N1CCC[C@@H]1c1ccc(C(F)(F)F)cc1` [Example 218, N-(cyclopentylmethyl)-5-fluoro-6-[(2R)-2-[4-(trifluoromethyl)phenyl]pyrrolidin-1-yl]pyrimidin-4-amine]: the IC50 was < 10 µM.

Regarding `CS(=O)(=O)c1ccc(CNc2ncnc(N3CCC[C@@H]3c3ccc(C(F)(F)F)cc3)c2F)cc1` [Example 219, 5-fluoro-N-[(4-methylsulfonylphenyl)methyl]-6-[(2R)-2-[4-(trifluoromethyl)phenyl]pyrrolidin-1-yl]pyrimidin-4-amine], the IC50 was < 10 µM.

Consider `O=C(O)C[C@H]1CC[C@H](CNc2ncnc(N3CCOC[C@@H]3c3ccc(OC(F)(F)F)cc3)c2F)CC1` [Example 243, 2-[4-[[[5-fluoro-6-[(3S)-3-[4-(trifluoromethoxy)phenyl]morpholin-4-yl]pyrimidin-4-yl]amino]methyl]cyclohexyl]acetic acid], for which the IC50 was < 0.5 µM. Same read-out and setting: the same measure for `CNC(=O)Cc1ccc(CNc2ncnc(N3CCOC[C@@H]3c3ccc(C(F)(F)F)cc3)c2F)cc1` [Example 244, 2-[4-[[[5-fluoro-6-[(3S)-3-[4-(trifluoromethyl)phenyl]morpholin-4-yl]pyrimidin-4-yl]amino]methyl]phenyl]-N-methyl-acetamide]: < 2 µM.
